Reference: patent US20260015358A1, “BICYCLIC DERIVATIVES, COMPOSITIONS AND USES THEREOF” (Danatlas Pharmaceuticals Co., Ltd., priority 2023, published 2026)

Assays:
[1] = molecular target: T1, WRN [UniPro: Q14191 (WRN_HUMAN), N500-C946] (Homo sapiens (Human), UniProt Q14191); assay: WRN ATPase assay (ADP-Glo); assay type: biochemical; conditions: WRN enzymatic activity assay
[2] = molecular target: T1, WRN [UniPro: Q14191 (WRN_HUMAN), N500-C946]; assay: WRN unwinding assay (FORKF DNA, fluorescence); assay type: biochemical; conditions: Table 14

T1 sequence (Q14191 500-946): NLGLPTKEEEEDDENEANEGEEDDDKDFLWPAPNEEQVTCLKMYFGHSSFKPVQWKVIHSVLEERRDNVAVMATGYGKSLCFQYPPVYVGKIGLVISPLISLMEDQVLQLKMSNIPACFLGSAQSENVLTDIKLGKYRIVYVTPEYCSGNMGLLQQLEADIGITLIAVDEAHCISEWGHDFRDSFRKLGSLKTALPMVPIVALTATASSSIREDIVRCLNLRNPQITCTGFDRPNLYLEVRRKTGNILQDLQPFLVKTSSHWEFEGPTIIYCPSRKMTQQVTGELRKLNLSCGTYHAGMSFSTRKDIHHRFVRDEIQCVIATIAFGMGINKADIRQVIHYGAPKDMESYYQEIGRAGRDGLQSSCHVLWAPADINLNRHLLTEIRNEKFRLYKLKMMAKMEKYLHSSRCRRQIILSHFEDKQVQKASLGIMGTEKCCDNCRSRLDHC

Row | IC50 [1] [nM] | IC50 [2] [nM] | Structure (SMILES)
1 | 100 to 1000 | < 100 | CCc1c(N2CCN(C(=O)CNC(=O)c3ncccc3O)CC2)c(=O)n2nc(C3=CCOCC3)nc2n1CC(=O)Nc1ccc(C(F)(F)F)cc1Cl [Example 271, N-(2-(4-(4-(2-((2-Chloro-4-(trifluoromethyl)phenyl)amino)-2-oxoethyl)-2-(3,6-dihydro-2H-pyran-4-yl)-5-ethyl-7-oxo-4,7-dihydro-[1,2,4]triazolo[1,5-a]pyrimidin-6-yl)piperazin-1-yl)-2-oxoethyl)-3-hydroxypicolinamide]
2 | < 100 | < 100 | CCc1c(N2CCN(C(=O)c3cnn4cccc4c3O)CC2)c(=O)n2nc(C3=CCOCC3)nc2n1CC(=O)Nc1sc(C)cc1C [Example 298, 2-(2-(3,6-Dihydro-2H-pyran-4-yl)-5-ethyl-6-(4-(4-hydroxypyrrolo[1,2-b]pyridazine-3-carbonyl)piperazin-1-yl)-7-oxo-[1,2,4]triazolo[1,5-a]pyrimidin-4(7H)-yl)-N-(3,5-dimethylthiophen-2-yl)acetamide]
3 | 100 to 1000 | 100 to 1000 | CCc1c(N2CCN(C(=O)c3cc4ccnn4cn3)CC2)c(=O)n2nc(C3=CCOCC3)nc2n1CC(=O)Nc1ccc(C(F)(F)F)cc1Cl [Example 296, N-(2-Chloro-4-(trifluoromethyl)phenyl)-2-(2-(3,6-dihydro-2H-pyran-4-yl)-5-ethyl-7-oxo-6-(4-(pyrazolo[1,5-c]pyrimidine-5-carbonyl)piperazin-1-yl)-[1,2,4]triazolo[1,5-a]pyrimidin-4(7H)-yl)acetamide]
4 | 100 to 1000 | 100 to 1000 | CCc1c(N2CCN(C(=O)CNC(=O)c3ccccc3)CC2)c(=O)n2nc(N3CC4(COC4)C3)nc2n1CC(=O)Nc1ccc(C(F)(F)F)cc1Cl [Example 235, N-(2-(4-(4-(2-((2-Chloro-4-(trifluoromethyl)phenyl)amino)-2-oxoethyl)-5-ethyl-7-oxo-2-(2-oxa-6-azaspiro[3.3]heptan-6-yl)-4,7-dihydro-[1,2,4]triazolo[1,5-a]pyrimidin-6-yl)piperazin-1-yl)-2-oxoethyl)benzamide]
5 | < 100 | < 100 | CCCC(=O)NCC(=O)N1CCN(c2c(CC)n(CC(=O)Nc3ccc(C(F)(F)F)cc3Cl)c3nc(C4=CCOCC4)nn3c2=O)CC1 [Example 94, N-(2-(4-(4-(2-((2-Chloro-4-(trifluoromethyl)phenyl)amino)-2-oxoethyl)-2-(3,6-dihydro-2H-pyran-4-yl)-5-ethyl-7-oxo-4,7-dihydro-[1,2,4]triazolo[1,5-a]pyrimidin-6-yl)piperazin-1-yl)-2-oxoethyl)butyramide]
6 | < 100 | < 100 | CCc1c(N2CCN(C(=O)CNC(=O)N3Cc4ccccc4C3)CC2)c(=O)n2nc(C3=CCOCC3)nc2n1CC(=O)Nc1ccc(C(F)(F)F)cc1Cl [Example 185, N-(2-(4-(4-(2-((2-Chloro-4-(trifluoromethyl)phenyl)amino)-2-oxoethyl)-2-(3,6-dihydro-2H-pyran-4-yl)-5-ethyl-7-oxo-4,7-dihydro-[1,2,4]triazolo[1,5-a]pyrimidin-6-yl)piperazin-1-yl)-2-oxoethyl)isoindoline-2-carboxamide]
7 | < 100 | < 100 | CCc1c(N2CCN(C(=O)C(=O)Nc3ncco3)CC2)c(=O)n2nc(C3=CCOCC3)nc2n1CC(=O)Nc1ccc(C(F)(F)F)cc1F [Example 228, 2-(4-(2-(3,6-Dihydro-2H-pyran-4-yl)-5-ethyl-4-(2-((2-fluoro-4-(trifluoromethyl)phenyl)amino)-2-oxoethyl)-7-oxo-4,7-dihydro-[1,2,4]triazolo[1,5-a]pyrimidin-6-yl)piperazin-1-yl)-N-(oxazol-2-yl)-2-oxoacetamide]
8 | < 100 | < 100 | CCc1c(N2CCN(C(=O)CNC(=O)c3cccc(O)c3F)CC2)c(=O)n2nc(C3=CCOCC3)nc2n1CC(=O)Nc1ccc(C(F)(F)F)cc1Cl [Example 293, N-(2-(4-(4-(2-((2-Chloro-4-(trifluoromethyl)phenyl)amino)-2-oxoethyl)-2-(3,6-dihydro-2H-pyran-4-yl)-5-ethyl-7-oxo-4,7-dihydro-[1,2,4]triazolo[1,5-a]pyrimidin-6-yl)piperazin-1-yl)-2-oxoethyl)-2-fluoro-3-hydroxybenzamide]
9 | < 100 | < 100 | CCc1c(N2CCN(C(=O)CNC(=O)c3ccon3)CC2)c(=O)n2nc(C3=CCOCC3)nc2n1CC(=O)Nc1ccc(C(F)(F)F)cc1Cl [Example 371, N-(2-(4-(4-(2-((2-Chloro-4-(trifluoromethyl)phenyl)amino)-2-oxoethyl)-2-(3,6-dihydro-2H-pyran-4-yl)-5-ethyl-7-oxo-4,7-dihydro-[1,2,4]triazolo[1,5-a]pyrimidin-6-yl)piperazin-1-yl)-2-oxoethyl) isoxazole-3-carboxamide]
10 | < 100 | < 100 | CCc1c(N2CCN(C(=O)CNC(=O)c3ccc(F)c(F)c3O)CC2)c(=O)n2nc(C3=CCOCC3)nc2n1CC(=O)Nc1ccc(C(F)(F)F)cc1F [Example 214, N-(2-(4-(2-(3,6-Dihydro-2H-pyran-4-yl)-5-ethyl-4-(2-((2-fluoro-4-(trifluoromethyl)phenyl)amino)-2-oxoethyl)-7-oxo-4,7-dihydro-[1,2,4]triazolo[1,5-a]pyrimidin-6-yl)piperazin-1-yl)-2-oxoethyl)-3,4-difluoro-2-hydroxybenzamide]
11 | 100 to 1000 | 100 to 1000 | CCc1c(N2CCN(C(=O)c3nccn(C)c3=O)CC2)c(=O)n2nc(C3=CCOCC3)nc2n1CC(=O)Nc1ccc(C(F)(F)F)cc1Cl [Example 54, N-(2-Chloro-4-(trifluoromethyl)phenyl)-2-(2-(3,6-dihydro-2H-pyran-4-yl)-5-ethyl-6-(4-(4-methyl-3-oxo-3,4-dihydropyrazine-2-carbonyl)piperazin-1-yl)-7-oxo-[1,2,4]triazolo[1,5-a]pyrimidin-4(7H)-yl)acetamide]
12 | 100 to 1000 | 100 to 1000 | CCc1c(N2CCN(C(=O)c3[nH]cnc3F)CC2)c(=O)n2nc(C3=CCOCC3)nc2n1CC(=O)Nc1ccc(C(F)(F)F)cc1Cl [Example 299, N-(2-Chloro-4-(trifluoromethyl)phenyl)-2-(2-(3,6-dihydro-2H-pyran-4-yl)-5-ethyl-6-(4-(4-fluoro-1H-imidazole-5-carbonyl)piperazin-1-yl)-7-oxo-[1,2,4]triazolo[1,5-a]pyrimidin-4(7H)-yl)acetamide]
13 | 100 to 1000 | 100 to 1000 | CCc1c(N2CCN(C(=O)CNC(=O)c3ccccc3F)CC2)c(=O)n2nc(SC)nc2n1CC(=O)Nc1ccc(C(F)(F)F)cc1Cl [Example 241, N-(2-(4-(4-(2-((2-Chloro-4-(trifluoromethyl)phenyl)amino)-2-oxoethyl)-5-ethyl-2-(methylthio)-7-oxo-4,7-dihydro-[1,2,4]triazolo[1,5-a]pyrimidin-6-yl)piperazin-1-yl)-2-oxoethyl)-2-fluorobenzamide]
14 | < 100 | < 100 | CCc1c(N2CCN(C(=O)c3cnc4cc(C)cn4c3O)CC2)c(=O)n2nc(C3=CCOCC3)nc2n1CC(=O)Nc1ccc(C(F)(F)F)cc1Cl [Example 92, N-(2-Chloro-4-(trifluoromethyl)phenyl)-2-(2-(3,6-dihydro-2H-pyran-4-yl)-5-ethyl-6-(4-(4-hydroxy-7-methylpyrrolo[1,2-a]pyrimidine-3-carbonyl)piperazin-1-yl)-7-oxo-[1,2,4]triazolo[1,5-a]pyrimidin-4(7H)-yl)acetamide]
